# Results: ChEMBL document CHEMBL3734677, “EVALUATION OF AROMATIC 6-SUBSTITUTED THIENOPYRIMIDINES AS SCAFFOLDS AGAINST PARASITES THAT CAUSE TRYPANOSOMIASIS, LEISHMANIASIS, AND MALARIA” (Medchemcomm, 2015)
# Key:
# HepG2 = assay: Cytotoxicity against human HepG2 cells by MTT assay; format: cell-based; settings: hepg2
# Trypanosoma cruzi [1] = assay: Antiparasitic activity against Trypanosoma cruzi; format: functional, organism-based
# Trypanosoma brucei [2] = assay: Antiparasitic activity against Trypanosoma brucei after 48 hrs by cytometry; format: functional, organism-based
# Leishmania major [3] = assay: Antiparasitic activity against Leishmania major promastigotes; format: functional, organism-based
# Plasmodium falciparum = assay: Antiparasitic activity against Plasmodium falciparum D6; format: functional, organism-based
# Leishmania major [4] = assay: Antiparasitic activity against Leishmania major amastigotes; format: functional, organism-based
# Trypanosoma cruzi [5] = assay: Antiparasitic activity against Trypanosoma cruzi at 10 uM; format: functional
# [6] = Selectivity ratio, ratio of EC50 for Plasmodium falciparum W2 to EC50 for Plasmodium falciparum D6; format: functional
# [7] = Selectivity ratio, ratio of EC50 for Plasmodium falciparum C235 to EC50 for Plasmodium falciparum D6; format: functional
# Trypanosoma brucei [8] = assay: Antiparasitic activity against Trypanosoma brucei at 5 uM after 48 hrs by cytometry; format: functional
# [9] = Leishmania major, read-out: EC50
# [10] = Plasmodium falciparum, D6, read-out: EC50
Compound,Activity (HepG2),EC50 (Trypanosoma cruzi [1]) [nM],EC50 (Trypanosoma brucei [2]) [nM],EC50 (Leishmania major [3]; [9]) [nM],EC50 (Plasmodium falciparum; [10]) [nM],EC50 (Leishmania major [4]; [9]) [nM],inhibition at 10 µM (Trypanosoma cruzi [5]) [%],Ratio EC50 [6],Ratio EC50 [7],inhibition at 5 µM (Trypanosoma brucei [8]) [%],EC50 (Leishmania major [3]),EC50 (Plasmodium falciparum),EC50 (Leishmania major [4])
CC(C)(C)NS(=O)(=O)c1ccccc1-c1cc2c(Nc3ccc(OCc4cccc(F)c4)c(Cl)c3)ncnc2s1,Non-toxic,> 50000,500,> 20000,> 15000,> 15000,,,,,,,
Cc1cc(-c2cc3c(Nc4ccc(OCc5cccc(F)c5)c(Cl)c4)ncnc3s2)cnc1N1CCOCC1,Non-toxic,,420,> 3000,280,> 3000,29,< 3,< 3,,,,
Fc1cccc(COc2ccc(Nc3ncnc4cc(-c5cccc(N6CCOCC6)c5)sc34)cc2Cl)c1,Non-toxic,> 50000,,> 20000,860,5400,,,,42,,,
Fc1cccc(COc2ccc(Nc3ncnc4cc(-c5cc6ccccc6s5)sc34)cc2Cl)c1,Non-toxic,> 50000,,> 20000,> 15000,> 15000,,,,8,,,
Fc1cccc(COc2ccc(Nc3ncnc4ccc(-c5cc6ccccc6s5)cc34)cc2Cl)c1,Non-toxic,> 50000,6000,> 20000,910,> 15000,,,,,,,
Fc1cccc(COc2ccc(Nc3ncnc4sc(-c5cc6ccccc6s5)cc34)cc2Cl)c1,Non-toxic,,2900,> 3000,> 4000,> 3000,49,,,,,,
O=C(c1cccc(-c2cc3c(Nc4ccc(OCc5cccc(F)c5)c(Cl)c4)ncnc3s2)c1)N1CCCCC1,Non-toxic,> 50000,330,> 20000,2110,> 15000,,,,,,,
Oc1ccc(-c2ccc3ncnc(Nc4ccc(OCc5cccc(F)c5)c(Cl)c4)c3c2)cc1,Non-toxic,> 50000,6500,> 20000,> 20000,> 15000,,,,,,,
CS(=O)(=O)c1cccc(-c2ccc3ncnc(Nc4ccc(OCc5cccc(F)c5)c(Cl)c4)c3c2)c1,Non-toxic,5000,3200,3490,520,4670,,< 3,< 3,,,,
Fc1cccc(COc2ccc(Nc3ncnc4cc(-c5ccccc5)sc34)cc2Cl)c1,Non-toxic,,2800,8140,2970,> 15000,0,,,,,,
O=C(c1cccc(-c2cc3ncnc(Nc4ccc(OCc5cccc(F)c5)c(Cl)c4)c3s2)c1)N1CCCCC1,Non-toxic,3200,,> 20000,1170,3100,,,,46,,,
Oc1ccc(-c2cc3ncnc(Nc4ccc(OCc5cccc(F)c5)c(Cl)c4)c3s2)cc1,Non-toxic,750,2200,> 20000,440,1580,,,,,,,
Fc1cccc(COc2ccc(Nc3ncnc4ccsc34)cc2Cl)c1,Non-toxic,27000,,5680,16400,> 15000,,,,1,,,
Fc1cccc(COc2ccc(Nc3ncnc4sc(-c5ccccc5Oc5ccccc5)cc34)cc2Cl)c1,Non-toxic,,1200,> 20000,10800,> 15000,45,,,,,,
CS(=O)(=O)c1cccc(-c2cc3ncnc(Nc4ccc(OCc5cccc(F)c5)c(Cl)c4)c3s2)c1,Non-toxic,2700,1400,> 3000,650,> 3000,,< 3,< 3,,,,
CC(C)(C)NS(=O)(=O)c1ccccc1-c1cc2ncnc(Nc3ccc(OCc4cccc(F)c4)c(Cl)c3)c2s1,Non-toxic,670,1200,> 20000,1070,2370,,,,,,,
CC(C)(C)NS(=O)(=O)c1ccccc1-c1ccc2ncnc(Nc3ccc(OCc4cccc(F)c4)c(Cl)c3)c2c1,Non-toxic,6400,4700,,,,,,,,ND(Insoluble),ND(Insoluble),ND(Insoluble)
Fc1cccc(COc2ccc(Nc3ncnc4sc(-c5cccc(N6CCOCC6)c5)cc34)cc2Cl)c1,Non-toxic,2200,400,> 20000,520,2600,,,,,,,
Cc1cc(-c2ccc3ncnc(Nc4ccc(OCc5cccc(F)c5)c(Cl)c4)c3c2)cnc1N1CCOCC1,Non-toxic,,1000,> 20000,260,1140,49,< 3,< 3,,,,
CC(C)(C)OCc1ccc(-c2cc3c(Nc4ccc(OCc5cccc(F)c5)c(Cl)c4)ncnc3s2)cc1,Non-toxic,,1600,> 20000,7790,2030,17,,,,,,
CC(C)(C)OCc1ccc(-c2ccc3ncnc(Nc4ccc(OCc5cccc(F)c5)c(Cl)c4)c3c2)cc1,Non-toxic,2200,220,> 20000,600,4090,,,,,,,
CS(=O)(=O)c1cccc(-c2cc3c(Nc4ccc(OCc5cccc(F)c5)c(Cl)c4)ncnc3s2)c1,Non-toxic,2400,1300,11800,520,> 15000,,< 3,< 3,,,,
O=C(c1cccc(-c2ccc3ncnc(Nc4ccc(OCc5cccc(F)c5)c(Cl)c4)c3c2)c1)N1CCCCC1,Non-toxic,> 50000,,> 3000,510,> 15000,,,,,,,
Fc1cccc(COc2ccc(Nc3ncnc4cc(-c5ccc(N6CCOCC6)cc5)sc34)cc2Cl)c1,Non-toxic,,470,> 20000,3100,> 15000,0,,,,,,
Fc1cccc(COc2ccc(Nc3ncnc4cc(-c5ccc(CN6CCOCC6)cc5)sc34)cc2Cl)c1,Non-toxic,> 50000,1100,220,27,> 15000,,,< 3,,,,
CC(C)(C)OCc1ccc(-c2cc3ncnc(Nc4ccc(OCc5cccc(F)c5)c(Cl)c4)c3s2)cc1,Non-toxic,30000,890,> 20000,1650,> 15000,,,,,,,
Fc1cccc(COc2ccc(Nc3ncnc4ccccc34)cc2Cl)c1,Non-toxic,2400,1300,1750,5330,12400,,,,,,,
Fc1cccc(COc2ccc(Nc3ncnc4ccc(-c5ccccc5Oc5ccccc5)cc34)cc2Cl)c1,Non-toxic,,,6860,5790,> 15000,,,,,,,
